Results: ChEMBL document CHEMBL3864146, “5-Alkyloxytryptamines are membrane-targeting, broad-spectrum antibiotics” (Bioorg Med Chem Lett, 2016)
In brackets after ≈: the same amount, converted by molar mass.

Key:
Escherichia coli [1] = experiment: Antibacterial activity against Escherichia coli BW25113 after 16 to 18 hrs by micro-dilution method; type: functional
Escherichia coli [2] = experiment: Antibacterial activity against tolC-deficient Escherichia coli BW25113 after 16 to 18 hrs by micro-dilution method; type: functional
Bacillus subtilis = experiment: Antibacterial activity against Bacillus subtilis 168 after 16 to 18 hrs by micro-dilution method; type: functional; settings: subsp. subtilis str. 168
Pseudomonas aeruginosa = experiment: Antibacterial activity against Pseudomonas aeruginosa after 16 to 18 hrs by micro-dilution method; type: functional
Salmonella typhimurium = experiment: Antibacterial activity against Salmonella typhimurium after 16 to 18 hrs by micro-dilution method; type: functional, Salmonella enterica subsp. enterica serovar Typhimurium; settings: Salmonella enterica
Vibrio cholerae = experiment: Antibacterial activity against Vibrio cholerae after 16 to 18 hrs by micro-dilution method; type: functional
Shigella boydii = experiment: Antibacterial activity against Shigella boydii after 16 to 18 hrs by micro-dilution method; type: functional
Klebsiella pneumoniae = experiment: Antibacterial activity against Klebsiella pneumoniae after 16 to 18 hrs by micro-dilution method; type: functional
Klebsiella aerogenes = experiment: Antibacterial activity against Enterobacter aerogenes after 16 to 18 hrs by micro-dilution method; type: functional
Acinetobacter baumannii = experiment: Antibacterial activity against Acinetobacter baumannii after 16 to 18 hrs by micro-dilution method; type: functional
Edwardsiella tarda = experiment: Antibacterial activity against Edwardsiella tarda after 16 to 18 hrs by micro-dilution method; type: functional
Morganella morganii = experiment: Antibacterial activity against Morganella morganii after 16 to 18 hrs by micro-dilution method; type: functional
Staphylococcus aureus = experiment: Antibacterial activity against Staphylococcus aureus after 16 to 18 hrs by micro-dilution method; type: functional
Escherichia coli [3] = experiment: Induction of membrane permeabilization in Escherichia coli BW25113 at MIC after 15 mins by propidium iodide staining-based fluorescence microplate reader method relative to 50% ethanol; type: functional

| SMILES | MIC (Escherichia coli [1]) [µg/mL] | MIC (Escherichia coli [2]) [µg/mL] | MIC (Bacillus subtilis) [µg/mL] | MIC (Pseudomonas aeruginosa) [µg/mL] | MIC (Salmonella typhimurium) [µg/mL] | MIC (Vibrio cholerae) [µg/mL] | MIC (Shigella boydii) [µg/mL] | MIC (Klebsiella pneumoniae) [µg/mL] | MIC (Klebsiella aerogenes) [µg/mL] | MIC (Acinetobacter baumannii) [µg/mL] | MIC (Edwardsiella tarda) [µg/mL] | MIC (Morganella morganii) [µg/mL] | MIC (Staphylococcus aureus) [µg/mL] | Activity (Escherichia coli [3]) [%] |
| --- | --- | --- | --- | --- | --- | --- | --- | --- | --- | --- | --- | --- | --- | --- |
| CCCCCCCCCOc1ccc(CCN)cc1 | 5.3 (≈ 20.1 µM) | 1.3 (≈ 4.93 µM) | 0.66 (≈ 2.51 µM) | > 84 | 5.3 (≈ 20.1 µM) | 5.3 (≈ 20.1 µM) | 5.3 (≈ 20.1 µM) | 5.3 (≈ 20.1 µM) | 11 (≈ 41.8 µM) | 5.3 (≈ 20.1 µM) | > 84 | > 84 | 2.6 (≈ 9.87 µM) | – |
| NCCc1c[nH]c2ccc(O)cc12 [SEROTONIN] | > 56.4 | > 56.4 | > 56.4 | – | – | – | – | – | – | > 56.4 | – | – | > 56.4 | – |
| COc1ccc2[nH]cc(CCN)c2c1 [5-METHOXYTRYPTAMINE] | > 60.8 | > 60.8 | > 60.8 | – | – | – | – | – | – | > 60.8 | – | – | > 60.8 | – |
| CCCCCCCCCCCCCCOc1ccc2[nH]cc(CCN)c2c1.Cl | > 119 | > 119 | 15 | > 119 | > 119 | > 119 | > 119 | > 119 | > 119 | > 119 | > 119 | > 119 | 3.4 to 30 | 11 |
| CCCCCCCCCOc1ccc2[nH]ccc2c1 | > 83 | > 83 | > 83 | > 83 | > 83 | > 83 | > 83 | > 83 | > 83 | > 83 | > 83 | > 83 | > 83 | – |
| CCCCCCCCCOc1ccc2[nH]cc(CCNC(=O)OC(C)(C)C)c2c1 | > 130 | > 130 | > 130 | > 130 | > 130 | > 130 | > 130 | > 130 | > 130 | > 130 | > 130 | > 130 | > 130 | – |
| Cc1[nH]c2ccc(O)cc2c1CCN | > 60.8 | > 60.8 | > 60.8 | – | – | – | – | – | – | > 60.8 | – | – | > 60.8 | – |
| CCCCCCCCCCCCCCCOc1ccc2[nH]cc(CCN)c2c1.Cl | > 124 | > 124 | > 124 | > 124 | > 124 | > 124 | > 124 | > 124 | > 124 | > 124 | > 124 | > 124 | > 124 | 13 |
